{
  "source": "patent US12251422B2",
  "about": "“Compositions and methods for treating neurological and other disorders” (Rush University Medical Center, priority 2018, dated 2025)",
  "key": {"IL-1β and iNOS": {"test_system": "IL-1β and iNOS", "experiment": "mRNA expression of IL-1β and iNOS in BV-2 microglial cells (RT-PCR, real-time PCR)", "type": "cell-based", "settings": "10 μM peptide 1 h", "experimental": "FIG. 4(A-S). Effect of wtTIDM and mTIDM peptides on the induction of NF-κB activation and the expression of proinflammatory molecules in microglial cells. BV-2 microglial cells preincubated with 10 μM wtTIDM/mTIDM peptides for 1 h were stimulated with 1 μM fibrillar Aβ1-42 (A-C), 1 μM MPP+ (D-F), 250 ng/ml LTA (G-I), […] LPS (J-L), 1 μM flagellin (M-O), and 1 μM CpG DNA (P-R) under serum-free condition. After 1 h of stimulation, the activation of NF-κB was monitored in nuclear extracts by EMSA (A, fibrillar Aβ; D, MPP+; G, LTA; J, LPS; M, flagellin, P; CpG DNA). After 4 h of stimulation, the mRNA expression of IL-1β (B, E, H, K, N, & Q) and iNOS (C, F, I, L, O, & R) was monitored by real-time PCR (B-C, fibrillar Aβ; E-F, MPP+; H-I, LTA; K-L, LPS; N-O, flagellin; Q-R, CpG DNA) (n=2 replicates/dose in 3 independent experiments). ap<0.001 vs control; bp<0.001 vs stimuli by two-sample t-tests. […]\nFIG. 13 (A-F). […] After 4 h of stimulation, the mRNA expression of IL-1β and iNOS was monitored by RT-PCR (n=2 replicates/condition in 3 independent experiments).\nFIG. 14 (A-D). […] A) After 1 h of stimulation, the activation of NF-κB was monitored in nuclear extracts by EMSA. […]\nDNase-digested RNA was analyzed by real-time PCR in the AβI-Prism7700 sequence detection system (Applied Biosystems, Foster City, CA) as described earlier (23, 57)."}, "5×FAD Tg mice": {"test_system": "5×FAD Tg mice", "experiment": "Glial activation and NF-κB in hippocampus of 5×FAD Tg mice", "type": "in vivo, mouse", "settings": "0.1 mg/kg body wt/2 d intranasal, 30 d", "from_the_text": "FIG. 5 (A-Q). […] Actin was run as loading control. […] M) Hippocampal sections were immunolabeled with 82E1 mAb. […] Arrowhead indicates 4 kDa Aβ band.\nFIG. 18 (A-B). After intranasal delivery, wtTIDM peptide suppresses the activation of NF-κB in the hippocampus of Tg mice. […] After 30 d of treatment, hippocampal extracts of all groups of mice were immunoblotted for phospho-p65 (A). Actin was run as loading control.\nFIG. 19. Intranasal delivery of wtTIDM, but not mTIDM, peptide suppresses microglial expression of iNOS in the hippocampus of Tg mice. […] After 30 d of treatment, mice were sacrificed and hippocampal sections were double-labeled for Iba-1 and iNOS. Results represent analysis of two sections from each of six different mice per group.\nB6SJL-Tg (APPSwFlLon,PSEN1*M146L*L286V) 6799Vas/J transgenic (5×FAD or termed here as Tg) mice were purchased from Jackson Laboratories (Bar Harbor, ME). […] Briefly, TIDM peptides were dissolved in 5 μl normal saline, mice were hold in supine position and saline was delivered into one nostril using a pipetman.\nMice were anesthetized with ketamine-xylazine injectables and perfused with PBS and then with 4% (w/v) paraformaldehyde in PBS followed by dissection of the brain from each mouse for immunofluorescence microscopy (23, 59). […] The samples were mounted and observed under an Olympus IX81 fluorescence microscope. […]"}},
  "data": [
    {"smiles": "CC[C@H](C)[C@H](NC(=O)[C@H](CCCCN)NC(=O)[C@@H](NC(=O)[C@H](CCC(N)=O)NC(=O)[C@H](CCCNC(=N)N)NC(=O)[C@@H](N)CC(=O)O)[C@@H](C)CC)C(=O)N[C@@H](Cc1c[nH]c2ccccc12)C(=O)N[C@@H](Cc1ccccc1)C(=O)N[C@@H](CCC(N)=O)C(=O)N[C@@H](CC(N)=O)C(=O)N[C@@H](CCCNC(=N)N)C(=O)N[C@@H](CCCNC(=N)N)C(=O)N[C@@H](CCSC)C(=O)N[C@@H](CCCCN)C(=O)N[C@@H](Cc1c[nH]c2ccccc12)C(=O)N[C@@H](CCCCN)C(=O)N[C@@H](CCCCN)C(=O)N1CCC[C@H]1C(=O)NCC(=O)N[C@@H](C)C(=O)N[C@@H](Cc1c[nH]cn1)C(=O)N[C@@H](CCC(N)=O)C(=O)N[C@@H](CCCCN)C(=O)O", "note": "[wtTIDM, drqikiwfqnrrmkwkkPGAHQK]", "values": [
      {"measurement": "inhibition of expression of proinflammatory molecules (IL-1β, iNOS) induced by LTA", "setting": "IL-1β and iNOS; 250 ng/ml LTA for 4 h", "result": "inhibited"},
      {"measurement": "inhibition of expression of proinflammatory molecules (IL-1β, iNOS) induced by fibrillar Aβ", "setting": "IL-1β and iNOS; 1 μM fibrillar Aβ1-42 for 4 h", "result": "inhibited"},
      {"measurement": "Iba-1 and phospho-p65 in the hippocampus", "setting": "5×FAD Tg mice", "result": "suppression"},
      {"measurement": "expression of iNOS in the hippocampus", "setting": "5×FAD Tg mice", "result": "suppressed"}
    ]}
  ]
}
